Source: US7169756B2, “Streptogramin antibiotics” (priority 2005, dated 2007)
Bridge positions count the residues as written; N and C are the ends. Square brackets hold non-standard residues; d marks the D form. Peptide text beside a SMILES is read from it. * marks the point of attachment. Picolinoyl(3-OH) = O=C(c1ncccc1O)*; Phg = N[CH](C(=O)O)c1ccccc1; Abu = CC[CH](N)C(=O)O; Dap = NC[CH](N)C(=O)O

How the values were obtained:
in vitro translation = assay: In Vitro Translation Assay; format: biochemical; conditions: FIG. 6; 15 min preincubation, 1 hr at 37° C., 5% DMSO; concentration not given
Procedure: Inhibition of translation was monitored using an ActivePro In Vitro Translation Kit from Ambion. Briefly, a reaction mixture was prepared as per the manufacturer's instructions that contained all of the constituents necessary (including [^35S]-methionine) except for DNA template. These mixtures were then preincubated for 15 min at room temperature in the presence or absence of various antibiotics. Subsequent to the preincubation period, a control template containing a chloramphenicol acetyltransferase gene under control of a bacteriophage T7 promoter was added and the reaction carried out for 1 hr at 37° C. Due to the insoluble nature of some of the antibiotics, the final DMSO concentration in each reaction including controls was maintained at 5% (v/v). Aliquots were taken after 1 hr, and separated on SDS polyacrylamide gels. The efficiency of translation of ^35S-labeled […] was analyzed and quantified using a Typhoon 9200 variable mode imager (Image-Quant 5.2 software).

E. coli BAS901/pUC19 = assay: disk assay, zone of growth inhibition; format: cell-based, Escherichia coli
Source text: (§1) A hyperpermeable E. coli strain, E. coli BAS901, harboring a plasmid constitutively expressing Vgb was created for in vivo studies. The plasmids pVGB, described previously in [14], and […] were digested with Xbal and BamHI, to yield an approximately 1 kb fragment containing a ribosomal binding site upstream of vgb, and linearized pUC19 backbone, respectively. The vgb fragment was then subcloned into the linearized pUC19 backbone downstream of pLac yielding pUC19-VGB. Both pUC19-VGB and pUC19 were transformed E. coli BAS901.
(§2) The antibiotic activity of the peptides synthesized in this study was initially assayed using a disk assay where samples were applied to sterile paper disks placed on a fresh lawn of bacterial culture on appropriate agar plates as required by the organism. These were then incubated for 16 hr at 37° C. and the zone of growth inhibition surrounding the disks recorded. For quantitative assessment of antibiotic activity in liquid culture, the minimal inhibitory concentration (MIC) of peptides was determined by serial dilution studies. The peptides and standard antibiotics were dissolved in DMSO and the final concentration of DMSO in the liquid cultures was 5%. Both S. aureus RN4220 and E. coli BAS901 were able to grow efficiently at this level of DMSO.
(§3) Crude material from the initial synthesis reactions was used to test the potential of the analogues as antibiotics in susceptibility assays where a solution of the compound was placed on a paper disk on a lawn of bacteria. As described above, E. coli BAS901 is deficient in the Imp/OstA protein, an outer membrane protein, involved in cell envelope biogenesis (1, 5). […] The antibiotic activity of the peptides synthesized in this study was initially assayed using a disk assay where samples were applied to sterile paper disks placed on a fresh lawn of bacterial culture on Tryptic Soya, Luria Broth, or Brain Heart Infusion Agar plates. These were then incubated for 16 hrs at 37° C. and the zone of growth inhibition surrounding the disks recorded.

E. coli BAS901/pUCVgb = assay: disk assay, zone of growth inhibition; format: cell-based, Escherichia coli; conditions: Vgb constitutively expressed
Source text: as §1, §2, §3

Human red blood cells = assay: Hemolysis Assay; format: cell-based; conditions: 3 and 9 hr at 37° C., A412 of supernatant, gramicidin 30 μg/ml
Procedure: Human red blood cells were freshly harvested, washed with 0.85% saline solution with 5 mM EDTA and resuspended in the same solution to an A412 of 0.6. The hemolysis assay was performed in 1.5 ml Eppendorf tubes with the addition of either 5 in DMSO, saline, gramicidin (final concentration 30 μg/ml), or DMSO (5% final), for both 3 and 9 hr at 37° C. with occasion gentle mixing. The mixtures were then centrifuged and the A412 of the supernatant measured.

O=C(N[C@H](CO)[C@H](O)c1ccc([N+](=O)[O-])cc1)C(Cl)Cl [chloramphenicol]
inhibition of in vitro translation (in vitro translation): did block

CCC1NC(=O)C(NC(=O)c2ncccc2O)CNC(=O)C(c2ccccc2)NC(=O)C2CCCN2C(=O)C(Cc2ccccc2)NC(=O)C2CCCN2C1=O (stereo not drawn) [Compound 8] ({Picolinoyl(3-OH)}-[Dap][Abu]PFP[Phg]; lactam 1-C; configuration not given here)
Zone of Inhibition (E. coli BAS901/pUC19): no antibacterial activity and n.i.
Zone of Inhibition (E. coli BAS901/pUCVgb): n.i.

CCN(CC)CCS(=O)(=O)[C@@H]1CCN2C(=O)c3coc(n3)CC(=O)C[C@H](O)/C=C(C)/C=C/CNC(=O)/C=C/[C@@H](C)[C@@H](C(C)C)OC(=O)[C@@H]12 [dalfopristin]
inhibition of in vitro translation (in vitro translation): did block

CC[C@H]1OC(=O)[C@H](C)[C@@H](O[C@H]2C[C@@](C)(OC)[C@@H](O)[C@H](C)O2)[C@H](C)[C@@H](O[C@@H]2O[C@H](C)C[C@H](N(C)C)[C@H]2O)[C@](C)(O)C[C@@H](C)C(=O)[C@H](C)[C@@H](O)[C@]1(C)O [erythromycin]
inhibition of in vitro translation (in vitro translation): did block

gramicidin S
hemolytic activity (Human red blood cells): lysed cells rapidly
